Experimental data taken from EP0049968A1, “Pharmaceutical compositions” (priority 1980, dated 1982).
Where two headings read alike, the source gives them in different places.

How the values were obtained:
[1] = system: highly resistant E.coli strains (producing a plasmid mediated β-lactamase); assay: MIC of compound (i) alone and in combination with compound (iii), E. coli strains; type: cell-based; conditions: for MIC µg/ml compound (i) compound (iii) (µg/ml) 10: with compound (iii) 10 µg/ml; for MIC µg/ml compound (i) compound (iii) (µg/ml) 1: with compound (iii) 1 µg/ml; for MIC µg/ml compound (i) compound (iii) (µg/ml) 2: with compound (iii) 2 µg/ml; for MIC µg/ml compound (i) compound (iii) (µg/ml) 5: with compound (iii) 5 µg/ml
[2] = system: highly resistant strains of Pseudomonas aeruginosa (producing both a plasmid-and chromosomally-mediated β-lactamase); assay: MIC of compound (i) alone and in combination with compound (iii), Pseudomonas aeruginosa strains; type: cell-based; conditions: for MIC: Pseudomonas aeruginosa

CC1(C)S[C@@H]2[C@H](NC(=O)[C@H](NC(=O)Nc3cnc(Nc4ccc(S(N)(=O)=O)cc4)nc3O)c3ccc(O)cc3)C(=O)N2[C@H]1C(=O)O [compound (i)]
MIC µg/ml compound (i) compound (iii) (µg/ml) 10 ([1]; strain E121): 0.08 µg/mL | MIC µg/ml compound (i) compound (iii) (µg/ml) 1 ([1]; strain E124): 1.25 µg/mL | MIC µg/ml compound (i) compound (iii) (µg/ml) 2 ([1]; strain E124): 0.62 µg/mL | MIC µg/ml compound (i) compound (iii) (µg/ml) 5 ([1]; strain E124): 0.31 µg/mL | MIC µg/ml compound (i) compound (iii) (µg/ml) 10 ([1]; strain E124): 0.16 µg/mL | MIC µg/ml compound (i) compound (iii) (µg/ml) 1 ([1]; strain JT4): 40 µg/mL | MIC µg/ml compound (i) compound (iii) (µg/ml) 2 ([1]; strain JT4): 20 µg/mL | MIC µg/ml compound (i) compound (iii) (µg/ml) 5 ([1]; strain JT4): 2.5 µg/mL | MIC µg/ml compound (i) compound (iii) (µg/ml) 10 ([1]; strain JT4): 1.25 µg/mL | MIC µg/ml compound (i) compound (iii) (µg/ml) 1 ([1]; strain JT9): 1.25 µg/mL | MIC µg/ml compound (i) compound (iii) (µg/ml) 2 ([1]; strain JT9): 0.62 µg/mL | MIC µg/ml compound (i) compound (iii) (µg/ml) 5 ([1]; strain JT9): 0.08 µg/mL | MIC µg/ml compound (i) compound (iii) (µg/ml) 10 ([1]; strain JT9): 0.08 µg/mL | MIC µg/ml compound (i) compound (iii) (µg/ml) 1 ([1]; strain JT39): 0.16 µg/mL | MIC µg/ml compound (i) compound (iii) (µg/ml) 2 ([1]; strain JT39): 0.16 µg/mL | MIC µg/ml compound (i) compound (iii) (µg/ml) 5 ([1]; strain JT39): 0.08 µg/mL | MIC µg/ml compound (i) compound (iii) (µg/ml) 10 ([1]; strain JT39): 0.02 µg/mL | MIC µg/ml compound (i) compound (iii) (µg/ml) 1 ([1]; strain JT68): 0.16 µg/mL | MIC µg/ml compound (i) compound (iii) (µg/ml) 2 ([1]; strain JT68): 0.31 µg/mL | MIC µg/ml compound (i) compound (iii) (µg/ml) 5 ([1]; strain JT68): 0.16 µg/mL | MIC µg/ml compound (i) compound (iii) (µg/ml) 10 ([1]; strain JT68): 0.08 µg/mL | MIC µg/ml compound (i) compound (iii) (µg/ml) 1 ([1]; strain P9): 1.25 µg/mL | MIC µg/ml compound (i) compound (iii) (µg/ml) 2 ([1]; strain P9): 0.62 µg/mL | MIC µg/ml compound (i) compound (iii) (µg/ml) 5 ([1]; strain P9): 0.16 µg/mL | MIC µg/ml compound (i) compound (iii) (µg/ml) 10 ([1]; strain P9): 0.08 µg/mL | MIC µg/ml compound (i) compound (iii) (µg/ml) 1 ([1]; strain P19): 0.31 µg/mL | MIC µg/ml compound (i) compound (iii) (µg/ml) 2 ([1]; strain P19): 0.31 µg/mL | MIC µg/ml compound (i) compound (iii) (µg/ml) 5 ([1]; strain P19): 0.08 µg/mL | MIC µg/ml compound (i) compound (iii) (µg/ml) 10 ([1]; strain P19): 0.02 µg/mL | MIC µg/ml compound (i) compound (iii) (µg/ml) 1 ([1]; strain SA15): 2.5 µg/mL | MIC µg/ml compound (i) compound (iii) (µg/ml) 2 ([1]; strain SA15): 1.25 µg/mL | MIC µg/ml compound (i) compound (iii) (µg/ml) 5 ([1]; strain SA15): 0.31 µg/mL | MIC µg/ml compound (i) compound (iii) (µg/ml) 10 ([1]; strain SA15): 0.08 µg/mL | MIC ([2]; read-out: MIC µg/ml compound (i) alone): > 160 µg/mL | MIC ([2]; read-out: MIC µg/ml compound (i) alone, Geometric mean): > 160 µg/mL | MIC µg/ml compound (i) compound (iii) (µg/ml) 1, Geometric mean ([2]; geometric mean of 6 Pseudomonas aeruginosa strains, with compound (iii) 1 µg/ml, 95% confidence limits (13.7-58.5)): 28.3 µg/mL | MIC µg/ml compound (i) compound (iii) (µg/ml) 2, Geometric mean ([2]; geometric mean of 6 Pseudomonas aeruginosa strains, with compound (iii) 2 µg/ml, 95% confidence limits (4.7-21.4)): 10 µg/mL | MIC µg/ml compound (i) compound (iii) (µg/ml) 5, Geometric mean ([2]; geometric mean of 6 Pseudomonas aeruginosa strains, with compound (iii) 5 µg/ml, 95% confidence limits (3.1-12.9)): 6.1 µg/mL | MIC µg/ml compound (i) compound (iii) (µg/ml) 10, Geometric mean ([2]; geometric mean of 6 Pseudomonas aeruginosa strains, with compound (iii) 10 µg/ml, 95% confidence limits (2.7-14.6)): 6.3 µg/mL | MIC µg/ml compound (i) alone ([2]; strain 1822): >160 µg/mL | MIC µg/ml compound (i) compound (iii) (µg/ml) 1 ([2]; strain 1822, with compound (iii) 1 µg/ml): 40 µg/mL | MIC µg/ml compound (i) compound (iii) (µg/ml) 2 ([2]; strain 1822, with compound (iii) 2 µg/ml): 5 µg/mL | MIC µg/ml compound (i) compound (iii) (µg/ml) 5 ([2]; strain 1822, with compound (iii) 5 µg/ml): 2.5 µg/mL | MIC µg/ml compound (i) compound (iii) (µg/ml) 10 ([2]; strain 1822, with compound (iii) 10 µg/ml): 2.5 µg/mL | MIC µg/ml compound (i) compound (iii) (µg/ml) 1 ([2]; strain Dalgleish, with compound (iii) 1 µg/ml): 20 µg/mL | MIC µg/ml compound (i) compound (iii) (µg/ml) 2 ([2]; strain Dalgleish, with compound (iii) 2 µg/ml): 10 µg/mL | MIC µg/ml compound (i) compound (iii) (µg/ml) 5 ([2]; strain Dalgleish, with compound (iii) 5 µg/ml): 5 µg/mL | MIC µg/ml compound (i) compound (iii) (µg/ml) 10 ([2]; strain Dalgleish, with compound (iii) 10 µg/ml): 10 µg/mL | MIC µg/ml compound (i) alone ([2]; strain FR6): >160 µg/mL | MIC µg/ml compound (i) compound (iii) (µg/ml) 1 ([2]; strain FR6, with compound (iii) 1 µg/ml): 80 µg/mL | MIC µg/ml compound (i) compound (iii) (µg/ml) 2 ([2]; strain FR6, with compound (iii) 2 µg/ml): 40 µg/mL | MIC µg/ml compound (i) compound (iii) (µg/ml) 5 ([2]; strain FR6, with compound (iii) 5 µg/ml): 20 µg/mL | MIC µg/ml compound (i) compound (iii) (µg/ml) 10 ([2]; strain FR6, with compound (iii) 10 µg/ml): 10 µg/mL | MIC µg/ml compound (i) alone ([2]; strain FR13): >160 µg/mL | MIC µg/ml compound (i) compound (iii) (µg/ml) 1 ([2]; strain FR13, with compound (iii) 1 µg/ml): 40 µg/mL | MIC µg/ml compound (i) compound (iii) (µg/ml) 2 ([2]; strain FR13, with compound (iii) 2 µg/ml): 10 µg/mL | MIC µg/ml compound (i) compound (iii) (µg/ml) 5 ([2]; strain FR13, with compound (iii) 5 µg/ml): 5 µg/mL | MIC µg/ml compound (i) compound (iii) (µg/ml) 10 ([2]; strain FR13, with compound (iii) 10 µg/ml): 2.5 µg/mL | MIC µg/ml compound (i) alone ([2]; strain Horton): >160 µg/mL | MIC µg/ml compound (i) compound (iii) (µg/ml) 1 ([2]; strain Horton, with compound (iii) 1 µg/ml): 20 µg/mL | MIC µg/ml compound (i) compound (iii) (µg/ml) 2 ([2]; strain Horton, with compound (iii) 2 µg/ml): 10 µg/mL | MIC µg/ml compound (i) compound (iii) (µg/ml) 5 ([2]; strain Horton, with compound (iii) 5 µg/ml): 10 µg/mL | MIC µg/ml compound (i) compound (iii) (µg/ml) 10 ([2]; strain Horton, with compound (iii) 10 µg/ml): 20 µg/mL | MIC µg/ml compound (i) alone ([2]; strain P22): >160 µg/mL | MIC µg/ml compound (i) compound (iii) (µg/ml) 1 ([2]; strain P22, with compound (iii) 1 µg/ml): 10 µg/mL | MIC µg/ml compound (i) compound (iii) (µg/ml) 2 ([2]; strain P22, with compound (iii) 2 µg/ml): 5 µg/mL | MIC µg/ml compound (i) compound (iii) (µg/ml) 5 ([2]; strain P22, with compound (iii) 5 µg/ml): 5 µg/mL | MIC µg/ml compound (i) compound (iii) (µg/ml) 10 ([2]; strain P22, with compound (iii) 10 µg/ml): 5 µg/mL
